In publication PMC11988556, “Combined Cytotoxic Effects of the Fungicide Azoxystrobin and Common Food-Contaminating Mycotoxins” (Foods, 2025):
pIC50: −log10 of the molar value.

What was measured:
[1] = test system: HepG2 cells; experiment: MTT cytotoxicity assay, with CI-isobologram analysis of mixtures; type: cell-based, human; conditions: for reduction of cell viability at the higher concentration tested: MTT, highest concentration of the combination experiment
[2] = test system: HepG2 cells; experiment: resazurin reduction cytotoxicity assay, with CI-isobologram analysis of mixtures; type: cell-based, human
[3] = IC50 from MTT individual cytotoxicity experiments, used to set combination ratios, 24 h, read-out: IC50 Concentration
[4] = MTT method, HepG2, 24 h, median-effect equation, read-out: Dm (median-effect concentration)
[5] = HepG2, 24 h, resazurin, highest concentration of the combination experiment
[6] = HepG2, 24 h exposure, resazurin assay, spread in brackets, read-out: IC50
[7] = resazurin method, HepG2, 24 h, median-effect equation, read-out: Dm (median-effect concentration)
[8] = read-out: Dm (median-effect concentration)

| Structure (SMILES) | reduction of cell viability at the higher concentration tested ([1]; HepG2, 24 h) | pIC50 [1, 3] | pIC50 [1, 4] | reduction of cell viability at the higher concentration tested [2, 5] | pIC50 [2, 6] | pIC50 [2, 7] | pIC50 ([1]; Homo sapiens, HepG2, IC50 from MTT individual cytotoxicity experiments, used to set combination ratios, 24 h, read-out: IC50 Concentration) | pIC50 ([1]; Homo sapiens, MTT method, HepG2, 24 h, median-effect equation, read-out: Dm (median-effect concentration)) | pIC50 ([2]; Homo sapiens, HepG2, 24 h exposure, resazurin assay, spread in brackets, read-out: IC50) | pIC50 ([2]; Homo sapiens, resazurin method, HepG2, 24 h, median-effect equation, read-out: Dm (median-effect concentration)) | pIC50 [1, 8] | pIC50 ([1]; read-out: IC50 Concentration) | reduction of cell viability at the higher concentration tested [2] | pIC50 [2, 8] | pIC50 ([2]; read-out: IC50) |
| --- | --- | --- | --- | --- | --- | --- | --- | --- | --- | --- | --- | --- | --- | --- | --- |
| CO/C=C(/C(=O)OC)c1ccccc1Oc1cc(Oc2ccccc2C#N)ncn1 [AZX, azoxystrobin] | 43% | 3.69 | 3.55 | 27% | 3.64 | 3.20 |  |  |  |  |  |  |  |  |  |
| CC1=C[C@H]2O[C@@H]3[C@H](O)C[C@](C)([C@@]2(CO)[C@H](O)C1=O)[C@]31CO1 [DON, deoxynivalenol] | 69% | 5.03 | 5.56 | 59% | 5.18 | 5.27 |  |  |  |  |  |  |  |  |  |
| C[C@@H]1Cc2c(Cl)cc(C(=O)N[C@@H](Cc3ccccc3)C(=O)O)c(O)c2C(=O)O1 [OTA, ochratoxin A] | 59% |  |  | 44% |  |  | 3.71 | 4.24 | 3.83 | 4.06 |  |  |  |  |  |
| CC(=O)OC[C@]12C[C@H](OC(=O)CC(C)C)C(C)=C[C@H]1O[C@@H]1[C@H](O)[C@@H](OC(C)=O)[C@@]2(C)[C@]12CO2 [T2, T-2 toxin] |  |  |  |  |  |  |  |  |  |  | 7.22 | 7.23 | 40% | 7.00 | 7.29 |
